Data: US9593305B2, “Differentiation of pluripotent stem cells” (Janssen Biotech, Inc., priority 2008, dated 2017)
“And” between values parts separate entries of the source, which are not always exact repeats. Equal values may be shown once.

System: H1 human embryonic stem cells
Experiment: Compounds and growth factors with low dose activin A (Example 9, Table 9)
Assay type: cell-based
Protocol: Clusters of H1 human embryonic stem cells were grown on reduced growth factor […]™ (Invitrogen; Cat #356231)-coated tissue culture plastic. Cells were passaged using collagenase (Invitrogen; Cat #17104-019) treatment and gentle scraping, washed to remove residual enzyme, and plated with even dispersal at a ratio of 1:1 (surface area) on reduced growth factor […]™-coated 96-well black plates (Packard ViewPlates; PerkinElmer; Cat #6005182) using volumes of 100 μl/well. Cells were allowed to attach as clusters and then recover log phase growth over a 1 to 3 day period, feeding daily with MEF conditioned medium supplemented with 8 ng/ml bFGF (R&D Systems; Cat #233-FB). Plates were maintained at 37° C., 5% CO2 in a humidified box throughout the duration of assay.
Stocks of growth factors purchased from R&D Systems were EGF (Cat #236-EG), FGF4 (Cat #235-F4), PDGF-A (Cat #221-AA), PDGF-D (Cat #1159-SB), PDGF-A/B (Cat #222-AB), VEGF (Cat #293-VE), and GDF-8 (Cat #788-08). Activin A was purchased from PeproTech (Cat #). Muscimol was purchased from Tocris (Cat #0289). All growth factors were solubilized in PBS with 0.1% BSA (Sigma; Cat #A7888) and stored frozen at −80° C. Muscimol was solubilized in 100% DMSO (Sigma; Cat #D2650) and stored frozen at −80° C. The compounds were available as 5 mM stocks in 96-well plate format, solubilized in 100% DMSO and stored at −80° C. The compounds were further diluted to an intermediate concentration of 0.2 mM in 50 mM HEPES (Invitrogen; Cat #15630-080), 20% DMSO and stored at 4° C. All growth factors and inhibitors were prepared in a deep well, 96-well polypropylene plate, diluted to 5× intermediate stocks in DMEM:F12 base medium at the beginning of assay and stored at 4° C.
A secondary screening assay was conducted, testing in triplicate and feeding on alternate days over the four-day assay timeframe. Assays were initiated by aspirating culture medium from each well followed by three washes in PBS to remove residual growth factors and serum. Test volumes of 80 μl per well were added back containing DMEM:F12 base medium (Invitrogen; Cat #11330-032) supplemented with 0.625% FCS (HyClone; Cat #SH30070.03), 25 ng/ml Wnt3a (R&D Systems), 12.5 ng/ml activin A, and 3.125 μM compound plus 20 μl 5× stock of growth factor or small molecule to yield a final concentration of 0.5% FCS, 20 ng/ml Wnt3a, 10 ng/ml activin A, and 2.5 μM compound. All remaining growth factors were tested at a final assay concentration of 50 ng/ml (EGF, FGF4, PDGF-A, PDGF-A/B, VEGF), with the exception of GDF-8 used at 25 ng/ml. Final assay concentration of muscimol was 20 μM. Positive control wells (100 μl/well) contained the same base medium supplemented with 0.5% FCS, 20 ng/ml Wnt3a and 10 ng/ml (low dose) or 100 ng/ml (high dose) activin A. Negative control wells (100 μl/well) contained the same base medium with 0.5% FCS and 20 ng/ml Wnt3a, omitting activin A.
Positive control wells (100 μl/well) contained the same base medium supplemented with 2% FCS and 10 ng/ml or 100 ng/ml activin A, omitting Wnt3a. Negative control wells (100 μl/well) contained the same base medium with 2% FCS, omitting both activin A and Wnt3a.
At the conclusion of four-days of culture, assay plates were washed twice with PBS, fixed with 4% paraformaldehyde (Alexis Biochemical; Cat #ALX-350-011) at room temperature for 20 minutes, then washed three times with PBS and permeabilized with 0.5% Triton X-100 (Sigma; Cat #T8760-2) for 20 minutes at room temperature. Cells were washed again three times with PBS and blocked with 4% chicken serum (Invitrogen; Cat #16110082) in PBS for 30 minutes at room temperature. Primary antibody (goat anti-human SOX17; R&D Systems; cat #AF1924) was diluted 1:100 in 4% chicken serum and added to each well for one hour at room temperature. […]

[1] = 10 ng/ml AA + compound + EGF + FGF4 + PDGF-A + Muscimol + Wnt3a
[2] = 10 ng/ml AA + compound + EGF + FGF4 + PDGF-A + VEGF + PDGF-D + Muscimol + GDF8 + Wnt3a
[3] = 10 ng/ml AA + compound + EGF + FGF4 + PDGF-AB + VEGF + Wnt3a
[4] = 10 ng/ml AA + compound + EGF + FGF4 + PDGF-AB + Wnt3a
[5] = 10 ng/ml AA + compound + EGF + FGF4 + Wnt3a
[6] = 10 ng/ml AA + compound + EGF + Wnt3a
[7] = 10 ng/ml AA + compound + FGF4 + Wnt3a
[8] = 10 ng/ml AA alone, no compound, no growth factors
[9] = 100 ng/ml AA alone, no compound, no growth factors

Compound	Cell Number, % of positive control [1]	Cell Number, Average Total Cell Number [1]	Sox17 Expression, % of positive control [1]	Sox17 Expression, Average Total Intensity [1]	Cell Number, % of positive control [2]	Cell Number, Average Total Cell Number [2]	Sox17 Expression, % of positive control [2]	Sox17 Expression, Average Total Intensity [2]	Cell Number, % of positive control [3]	Cell Number, Average Total Cell Number [3]	Sox17 Expression, % of positive control [3]	Sox17 Expression, Average Total Intensity [3]	Cell Number, % of positive control [4]	Cell Number, Average Total Cell Number [4]	Sox17 Expression, % of positive control [4]	Sox17 Expression, Average Total Intensity [4]	Cell Number, % of positive control [5]	Cell Number, Average Total Cell Number [5]	Sox17 Expression, % of positive control [5]	Sox17 Expression, Average Total Intensity [5]	other results
CN1CCC(=O)NCCCNc2ncccc2-c2ncnc(n2)Nc2cccc(c2)C1 [Compound 39, 9-Methyl-2,3,4,5,7,8,9,10-octahydro-16H-17,21-(azeno)-11,15-(metheno)pyrido[3,2-g][1,3,5,9,13,17]hexaazacyclotricosin-6(1H)-one]	37.64 % of positive control	2879	3.24 % of positive control	3.61E+06	75.00 % of positive control	5738	19.24 % of positive control	2.14E+07	33.08 % of positive control	2531	2.53 % of positive control	2.82E+06	39.07 % of positive control	2989	−0.02 % of positive control	−1.78E+04	9.59 % of positive control	734	−3.53 % of positive control	−3.93E+06	Cell Number, % of positive control [6]: 2.75 % of positive control; Cell Number, Average Total Cell Number [6]: 211; Sox17 Expression, % of positive control [6]: −4.08 % of positive control; Sox17 Expression, Average Total Intensity [6]: −4.54E+06; Cell Number, % of positive control [7]: 6.81 % of positive control; Cell Number, Average Total Cell Number [7]: 521; Sox17 Expression, % of positive control [7]: −4.01 % of positive control; Sox17 Expression, Average Total Intensity [7]: −4.46E+06; Cell Number, % of positive control (10 ng/ml AA + compound + Wnt3a): 6.78 % of positive control; Cell Number, Average Total Cell Number (10 ng/ml AA + compound + Wnt3a): 518; Sox17 Expression, % of positive control (10 ng/ml AA + compound + Wnt3a): −2.13 % of positive control; Sox17 Expression, Average Total Intensity (10 ng/ml AA + compound + Wnt3a): −2.37E+06
O=C1NCCCc2cncc(c2)-c2ncnc(n2)Nc2cc(Cl)cc(c2)CN2CCCC1C2 (stereo not drawn) [Compound 37, 10-Chloro-3,5,7,14,20,26,31-heptaazapentacyclo[22.3.1.1˜2,6˜0.1˜8,12˜0.1˜14,18˜]hentriaconta-1(28), 2(31), 3,5,8(30), 9,11,24,26-nonaen-19-one]	59.34 % of positive control	4540	0.83 % of positive control	9.23E+05	74.65 % of positive control	5711	10.82 % of positive control	1.21E+07	62.31 % of positive control	4767	−0.46 % of positive control	−5.16E+05	55.20 % of positive control	4223	−0.55 % of positive control	−6.15E+05	45.77 % of positive control	3501	0.50 % of positive control	5.60E+05	Cell Number, % of positive control [6]: 18.70 % of positive control; Cell Number, Average Total Cell Number [6]: 1431; Sox17 Expression, % of positive control [6]: −2.47 % of positive control; Sox17 Expression, Average Total Intensity [6]: −2.75E+06; Cell Number, % of positive control [7]: 51.37 % of positive control; Cell Number, Average Total Cell Number [7]: 3930; Sox17 Expression, % of positive control [7]: −1.69 % of positive control; Sox17 Expression, Average Total Intensity [7]: −1.88E+06; Cell Number, % of positive control (10 ng/ml AA + compound + Wnt3a): 10.34 % of positive control; Cell Number, Average Total Cell Number (10 ng/ml AA + compound + Wnt3a): 791; Sox17 Expression, % of positive control (10 ng/ml AA + compound + Wnt3a): −2.68 % of positive control; Sox17 Expression, Average Total Intensity (10 ng/ml AA + compound + Wnt3a): −2.99E+06
Activin A: recombinant human activin A (PeproTech), TGF-beta family member																					Cell Number, % of positive control [8]: 67.67 % of positive control and 100.00 % of positive control; Cell Number, Average Total Cell Number [8]: 5177 and 6132; Cell Number, % of positive control [9]: 100.00 % of positive control and 157.51 % of positive control; Cell Number, Average Total Cell Number [9]: 7650 and 9658; Sox17 Expression, % of positive control [9]: 100.00 % of positive control; Sox17 Expression, Average Total Intensity [9]: 1.11E+08 and 1.14E+08
CCN1CC(=O)NCCCc2cncc(c2)-c2ncnc(n2)Nc2cc(Cl)cc(c2)C1 [Compound 35, 10-Chloro-14-ethyl-3,5,7,14,17,23,27-heptaazatetracyclo[19.3.1.1˜2,6˜0.1˜8,12]Theptacosa-1(25), 2(27), 3,5,8(26), 9,11,21,23-nonaen-16-one]	62.29 % of positive control	3820	−1.46 % of positive control	−1.67E+06	41.14 % of positive control	2522	−4.25 % of positive control	−4.86E+06	56.74 % of positive control	3479	−3.46 % of positive control	−3.96E+06	53.21 % of positive control	3263	−3.99 % of positive control	−4.56E+06	44.10 % of positive control	2704	−3.65 % of positive control	−4.17E+06	Cell Number, % of positive control [6]: 2.53 % of positive control; Cell Number, Average Total Cell Number [6]: 155; Sox17 Expression, % of positive control [6]: −6.84 % of positive control; Sox17 Expression, Average Total Intensity [6]: −7.82E+06; Cell Number, % of positive control [7]: 4.64 % of positive control; Cell Number, Average Total Cell Number [7]: 284; Sox17 Expression, % of positive control [7]: −6.59 % of positive control; Sox17 Expression, Average Total Intensity [7]: −7.54E+06; Cell Number, % of positive control (10 ng/ml AA + compound + Wnt3a): 2.83 % of positive control; Cell Number, Average Total Cell Number (10 ng/ml AA + compound + Wnt3a): 173; Sox17 Expression, % of positive control (10 ng/ml AA + compound + Wnt3a): −6.66 % of positive control; Sox17 Expression, Average Total Intensity (10 ng/ml AA + compound + Wnt3a): −7.61E+06
